Values belong to the compound of their own block, whether it stands above or below them.
How the values were obtained:
[1] = Physical stability; visual assessment (color, turbidity, phase separation); format: physicochemical; set-up: key: ++: no discernible change with respect to color, turbidity or phase separation; +: marginal change in color number, somewhat increased Tyndall effect but no turbidity; 0: easily discernible increase in color number and moderate turbidity−no phase separation; −: turbidity and change in color number readily discernible by visual assessment; −−: strong color change with strong turbidity and incipient phase separation
Summary of the method: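 Samples were inspected visually for color, turbidity and phase separation and scored on a five-step scale. Scores run from ++ (no discernible change) to −− (strong color change, strong turbidity, incipient phase separation).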

[2] = Analysis of active substance: preservative concentration before and after storage in VI-containing polymer solution; format: physicochemical; conditions: for active-substance concentration, 0 d, RT: before storage; for active-substance concentration, 14 d, 40° C.: storage 14 d at 40° C.; for active-substance concentration, 28 d, 40° C.: storage 28 d at 40° C.; for active-substance concentration, 60 d 40° C.: storage 60 d at 40° C.
Summary of the method: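 Preservatives (MIT, BIT, CMIT, OIT, DCOIT, iodopropynyl butyl carbamate) in aqueous vinylpyrrolidone–vinylimidazole copolymer solution quantified after dilution by isocratic RP18 chromatography with UV detection, using an acid-methanol eluent.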

[3] = Iodine color number according to DIN 6162:2014-09; format: physicochemical
[4] = test system: Bacteria: Escherichia coli, Staphylococcus aureus, Pseudomonas aeruginosa, Pseudomonas putida, Burkholderia cepacia, Alcaligenes faecalis; test: Preservation test with periodic inoculation, bacteria assessment; format: cell-based; conditions: for Start sample measurement, bact. assess., 4th inoculation: freshly formulated; for 60 d 40° C., bact. assess., 4th inoculation: sample stored 60 d at 40° C.
Summary of the method: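 Polymer samples (25 g) containing preservative were inoculated weekly, four times, with 10^9/ml bacterial or yeast mixtures (0.5 ml). Weekly streaks on agar were scored semiquantitatively (−− to ++) after 3 days at 25 °C, on fresh samples and on samples stored 60 days at 40 °C.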

[5] = Polymer P5 (HP56) with stabilizer

Compound: CCCCNC(=O)OCC#CI [Iodopropynyl butyl carbamate, iodopropynyl butyl carbamate]
Physical stability, 60 d 40° C.* ([1]; Polymer P1 with stabilizer): −
Physical stability, 60 d 40° C.* ([1]; Polymer P2 with stabilizer): −
Physical stability, 60 d 40° C.* ([1]; Polymer P3 with stabilizer): −
Physical stability, 60 d 40° C.* ([1]; Polymer P4 with stabilizer): −
Physical stability, 60 d 40° C.* [1, 5]: −
Physical stability, 60 d 40° C.* ([1]; Polymer P6 with stabilizer): −
Physical stability, 60 d 40° C.* ([1]; Polymer P7 with stabilizer): −
Physical stability, 60 d 40° C.* ([1]; Polymer P8 with stabilizer): −
Physical stability, 60 d 40° C.* ([1]; Polymer P9 with stabilizer): −
active-substance concentration, 0 d, RT ([2]; in Polymer P1): 250 ppm
active-substance concentration, 14 d, 40° C. ([2]; in Polymer P1): 206 ppm
active-substance concentration, 28 d, 40° C. ([2]; in Polymer P1): 176 ppm
active-substance concentration, 60 d 40° C. ([2]; in Polymer P1): 84 ppm
active-substance concentration, 0 d, RT ([2]; in Polymer P2): 250 ppm
active-substance concentration, 14 d, 40° C. ([2]; in Polymer P2): 225 ppm
active-substance concentration, 28 d, 40° C. ([2]; in Polymer P2): 183 ppm
active-substance concentration, 60 d 40° C. ([2]; in Polymer P2): 122 ppm
active-substance concentration, 0 d, RT ([2]; in Polymer P3): 250 ppm
active-substance concentration, 14 d, 40° C. ([2]; in Polymer P3): 221 ppm
active-substance concentration, 28 d, 40° C. ([2]; in Polymer P3): 190 ppm
active-substance concentration, 60 d 40° C. ([2]; in Polymer P3): 107 ppm
active-substance concentration, 0 d, RT ([2]; in Polymer P4): 250 ppm
active-substance concentration, 14 d, 40° C. ([2]; in Polymer P4): 212 ppm
active-substance concentration, 28 d, 40° C. ([2]; in Polymer P4): 188 ppm
active-substance concentration, 60 d 40° C. ([2]; in Polymer P4): 101 ppm
active-substance concentration, 0 d, RT ([2]; in Polymer P5 (HP56)): 250 ppm
active-substance concentration, 14 d, 40° C. ([2]; in Polymer P5 (HP56)): 206 ppm
active-substance concentration, 28 d, 40° C. ([2]; in Polymer P5 (HP56)): 176 ppm
active-substance concentration, 60 d 40° C. ([2]; in Polymer P5 (HP56)): 84 ppm
active-substance concentration, 0 d, RT ([2]; in Polymer P6): 250 ppm
active-substance concentration, 14 d, 40° C. ([2]; in Polymer P6): 201 ppm
active-substance concentration, 28 d, 40° C. ([2]; in Polymer P6): 174 ppm
active-substance concentration, 60 d 40° C. ([2]; in Polymer P6): 80 ppm
active-substance concentration, 0 d, RT ([2]; in Polymer P7): 250 ppm
active-substance concentration, 14 d, 40° C. ([2]; in Polymer P7): 207 ppm
active-substance concentration, 28 d, 40° C. ([2]; in Polymer P7): 178 ppm
active-substance concentration, 60 d 40° C. ([2]; in Polymer P7): 87 ppm
active-substance concentration, 0 d, RT ([2]; in Polymer P8): 250 ppm
active-substance concentration, 14 d, 40° C. ([2]; in Polymer P8): 206 ppm
active-substance concentration, 28 d, 40° C. ([2]; in Polymer P8): 176 ppm
active-substance concentration, 60 d 40° C. ([2]; in Polymer P8): 84 ppm
active-substance concentration, 0 d, RT ([2]; in Polymer P9): 250 ppm
active-substance concentration, 14 d, 40° C. ([2]; in Polymer P9): 191 ppm
active-substance concentration, 28 d, 40° C. ([2]; in Polymer P9): 160 ppm
active-substance concentration, 60 d 40° C. ([2]; in Polymer P9): 78 ppm
Iodine color number, 60 d 40° C. ([3]; Polymer P1 with stabilizer): 7.5
Iodine color number, start ([3]; Polymer P1 with stabilizer): 2.8
Iodine color number, 60 d 40° C. ([3]; Polymer P2 with stabilizer): 8.0
Iodine color number, start ([3]; Polymer P2 with stabilizer): 2.8
Iodine color number, 60 d 40° C. ([3]; Polymer P3 with stabilizer): 10.4
Iodine color number, start ([3]; Polymer P3 with stabilizer): 3.4
Iodine color number, 60 d 40° C. ([3]; Polymer P4 with stabilizer): 10.0
Iodine color number, start ([3]; Polymer P4 with stabilizer): 3.4
Iodine color number, 60 d 40° C. [3, 5]: 11.7
Iodine color number, start [3, 5]: 3.4
Iodine color number, 60 d 40° C. ([3]; Polymer P6 with stabilizer): 11.0
Iodine color number, start ([3]; Polymer P6 with stabilizer): 3.4
Iodine color number, 60 d 40° C. ([3]; Polymer P7 with stabilizer): 11.0
Iodine color number, start ([3]; Polymer P7 with stabilizer): 3.4
Iodine color number, 60 d 40° C. ([3]; Polymer P8 with stabilizer): 11.4
Iodine color number, start ([3]; Polymer P8 with stabilizer): 3.4
Iodine color number, 60 d 40° C. ([3]; Polymer P9 with stabilizer): 16.9
Iodine color number, start ([3]; Polymer P9 with stabilizer): 3.9
Start sample measurement, bact. assess., 4th inoculation ([4]; Polymer P1): − (slight growth, max. 100 colonies)
60 d 40° C., bact. assess., 4th inoculation ([4]; Polymer P1): 0 (moderate growth, max. 400 colonies)
Start sample measurement, bact. assess., 4th inoculation ([4]; Polymer P2): − (slight growth, max. 100 colonies)
60 d 40° C., bact. assess., 4th inoculation ([4]; Polymer P2): +
Start sample measurement, bact. assess., 4th inoculation ([4]; Polymer P3): − (slight growth, max. 100 colonies)
60 d 40° C., bact. assess., 4th inoculation ([4]; Polymer P3): +
60 d 40° C., bact. assess., 4th inoculation ([4]; Polymer P4): 0 (moderate growth, max. 400 colonies)
Start sample measurement, bact. assess., 4th inoculation ([4]; Polymer P5 (HP56)): − (slight growth, max. 100 colonies)
60 d 40° C., bact. assess., 4th inoculation ([4]; Polymer P5 (HP56)): +
60 d 40° C., bact. assess., 4th inoculation ([4]; Polymer P6): +
60 d 40° C., bact. assess., 4th inoculation ([4]; Polymer P7): +
Start sample measurement, bact. assess., 4th inoculation ([4]; Polymer P8): − (slight growth, max. 100 colonies)
60 d 40° C., bact. assess., 4th inoculation ([4]; Polymer P8): +
60 d 40° C., bact. assess., 4th inoculation ([4]; Polymer P9): +

Physical stability, 60 d 40° C.* ([1]; Polymer P1 with stabilizer): +
Physical stability, 60 d 40° C.* ([1]; Polymer P2 with stabilizer): +
Physical stability, 60 d 40° C.* ([1]; Polymer P3 with stabilizer): +
Physical stability, 60 d 40° C.* ([1]; Polymer P4 with stabilizer): +
Physical stability, 60 d 40° C.* [1, 5]: +
Physical stability, 60 d 40° C.* ([1]; Polymer P6 with stabilizer): +
Physical stability, 60 d 40° C.* ([1]; Polymer P7 with stabilizer): +
Physical stability, 60 d 40° C.* ([1]; Polymer P8 with stabilizer): +
Physical stability, 60 d 40° C.* ([1]; Polymer P9 with stabilizer): ++
active-substance concentration, 0 d, RT ([2]; in Polymer P1): 1000 ppm
active-substance concentration, 14 d, 40° C. ([2]; in Polymer P1): 960 ppm
active-substance concentration, 28 d, 40° C. ([2]; in Polymer P1): 960 ppm
active-substance concentration, 60 d 40° C. ([2]; in Polymer P1): 940 ppm
active-substance concentration, 0 d, RT ([2]; in Polymer P2): 1000 ppm
active-substance concentration, 14 d, 40° C. ([2]; in Polymer P2): 960 ppm
active-substance concentration, 28 d, 40° C. ([2]; in Polymer P2): 960 ppm
active-substance concentration, 60 d 40° C. ([2]; in Polymer P2): 940 ppm
active-substance concentration, 0 d, RT ([2]; in Polymer P3): 1000 ppm
active-substance concentration, 14 d, 40° C. ([2]; in Polymer P3): 975 ppm
active-substance concentration, 28 d, 40° C. ([2]; in Polymer P3): 968 ppm
active-substance concentration, 60 d 40° C. ([2]; in Polymer P3): 952 ppm
active-substance concentration, 0 d, RT ([2]; in Polymer P4): 1000 ppm
active-substance concentration, 14 d, 40° C. ([2]; in Polymer P4): 964 ppm
active-substance concentration, 28 d, 40° C. ([2]; in Polymer P4): 960 ppm
active-substance concentration, 60 d 40° C. ([2]; in Polymer P4): 944 ppm
active-substance concentration, 0 d, RT ([2]; in Polymer P5 (HP56)): 1000 ppm
active-substance concentration, 14 d, 40° C. ([2]; in Polymer P5 (HP56)): 960 ppm
active-substance concentration, 28 d, 40° C. ([2]; in Polymer P5 (HP56)): 960 ppm
active-substance concentration, 60 d 40° C. ([2]; in Polymer P5 (HP56)): 940 ppm
active-substance concentration, 0 d, RT ([2]; in Polymer P6): 1000 ppm
active-substance concentration, 14 d, 40° C. ([2]; in Polymer P6): 970 ppm
active-substance concentration, 28 d, 40° C. ([2]; in Polymer P6): 961 ppm
active-substance concentration, 60 d 40° C. ([2]; in Polymer P6): 954 ppm
active-substance concentration, 0 d, RT ([2]; in Polymer P7): 1000 ppm
active-substance concentration, 14 d, 40° C. ([2]; in Polymer P7): 975 ppm
active-substance concentration, 28 d, 40° C. ([2]; in Polymer P7): 966 ppm
active-substance concentration, 60 d 40° C. ([2]; in Polymer P7): 953 ppm
active-substance concentration, 0 d, RT ([2]; in Polymer P8): 1000 ppm
active-substance concentration, 14 d, 40° C. ([2]; in Polymer P8): 960 ppm
active-substance concentration, 28 d, 40° C. ([2]; in Polymer P8): 960 ppm
active-substance concentration, 60 d 40° C. ([2]; in Polymer P8): 940 ppm
active-substance concentration, 0 d, RT ([2]; in Polymer P9): 1000 ppm
active-substance concentration, 14 d, 40° C. ([2]; in Polymer P9): 960 ppm
active-substance concentration, 28 d, 40° C. ([2]; in Polymer P9): 960 ppm
active-substance concentration, 60 d 40° C. ([2]; in Polymer P9): 940 ppm
Iodine color number, 60 d 40° C. ([3]; Polymer P1 with stabilizer): 2.7
Iodine color number, start ([3]; Polymer P1 with stabilizer): 2.6
Iodine color number, 60 d 40° C. ([3]; Polymer P2 with stabilizer): 3.1
Iodine color number, start ([3]; Polymer P2 with stabilizer): 3.0
Iodine color number, 60 d 40° C. ([3]; Polymer P3 with stabilizer): 3.3
Iodine color number, start ([3]; Polymer P3 with stabilizer): 3.1
Iodine color number, 60 d 40° C. ([3]; Polymer P4 with stabilizer): 3.3
Iodine color number, start ([3]; Polymer P4 with stabilizer): 3.1
Iodine color number, 60 d 40° C. [3, 5]: 3.3
Iodine color number, start [3, 5]: 3.4
Iodine color number, 60 d 40° C. ([3]; Polymer P6 with stabilizer): 3.5
Iodine color number, start ([3]; Polymer P6 with stabilizer): 3.4
Iodine color number, 60 d 40° C. ([3]; Polymer P7 with stabilizer): 3.5
Iodine color number, start ([3]; Polymer P7 with stabilizer): 3.4
Iodine color number, 60 d 40° C. ([3]; Polymer P8 with stabilizer): 3.5
Iodine color number, start ([3]; Polymer P8 with stabilizer): 3.2
Iodine color number, 60 d 40° C. ([3]; Polymer P9 with stabilizer): 3.9
Iodine color number, start ([3]; Polymer P9 with stabilizer): 3.7
Compound: CCCCCCCCCCCCCCCC[N+](C)(C)Cc1ccccc1.[Cl-] [Polymer 16-BAC, cetylalkonium chloride]
60 d 40° C., bact. assess., 4th inoculation ([4]; Polymer P4): − (slight growth, max. 100 colonies)
